Counter-ions that a name gives are not always drawn.
Assays:
[1] = tested on: A. baumannii (ATCC 19606); experiment: CO-ADD antibacterial assay, growth inhibition (OD600); assay type: cell-based, Acinetobacter baumannii; settings: up to 32 μg/mL; for MIC / Dmax: Acinetobacter baumannii, ATCC19606; for MIC / MIC A. baumannii: predicted or measured MIC, ≥75% growth inhibition; for Dmax: read-out: Dmax A. baumannii, maximum % inhibition
E. coli (ATCC 25922) = experiment: as above; assay type: cell-based, Escherichia coli; settings: up to 32 μg/mL; for MIC / Dmax: Escherichia coli, ATCC25922; for MIC / MIC E. coli: predicted or measured MIC, ≥75% growth inhibition; for Dmax: read-out: Dmax E. coli, maximum % inhibition
[2] = tested on: P. aeruginosa (ATCC 27853); experiment: as above; assay type: cell-based, Pseudomonas aeruginosa; settings: up to 32 μg/mL; for MIC / Dmax: Pseudomonas aeruginosa, ATCC27853; for MIC / MIC P. aeruginosa: predicted or measured MIC, ≥75% growth inhibition; for Dmax: read-out: Dmax P. aeruginosa, maximum % inhibition
[3] = tested on: C. neoformans (ATCC 208821); experiment: CO-ADD antifungal assay, growth inhibition (resazurin, OD600-570); assay type: cell-based, Cryptococcus neoformans; settings: up to 32 μg/mL; for MIC / Dmax: Cryptococcus neoformans, ATCC208821; for MIC / MIC C. neoformans: predicted or measured MIC, ≥75% growth inhibition, 36 h; for Dmax: read-out: Dmax C. neoformans, maximum % inhibition
[4] = tested on: S. aureus MRSA (ATCC 43300); experiment: CO-ADD antibacterial assay, growth inhibition (OD600); assay type: cell-based, Staphylococcus aureus; settings: for MIC / Dmax: Staphylococcus aureus; for MIC / MIC S. aureus (MRSA): predicted or measured MIC, lowest concentration with ≥75% growth inhibition, 0.25-32 μg/mL, 18 h; for Dmax / Dmax S. aureus (MRSA), maximum % inhibition: up to 32 μg/mL; for Dmax: read-out: Dmax S. aureus (MRSA), maximum % inhibition
[5] = tested on: K. pneumoniae (ATCC 700603); experiment: as above; assay type: cell-based, Klebsiella pneumoniae; settings: up to 32 μg/mL; for MIC / Dmax: Klebsiella pneumoniae, ATCC700603; for MIC / MIC K. pneumoniae: predicted or measured MIC, ≥75% growth inhibition; for Dmax: read-out: Dmax K. pneumoniae, maximum % inhibition
C. albicans (ATCC 90028) = experiment: CO-ADD antifungal assay, growth inhibition (OD630); assay type: cell-based, Candida albicans; settings: for MIC / Dmax: Candida albicans, ATCC90028; for MIC / MIC C. albicans: predicted or measured MIC, ≥75% growth inhibition, 36 h; for MIC / Dmax / MIC C. albicans / Dmax C. albicans, maximum % inhibition: up to 32 μg/mL; for Dmax: read-out: Dmax C. albicans, maximum % inhibition

Row | Molecule | MIC [1] | Dmax [1] | MIC (E. coli (ATCC 25922)) | Dmax (E. coli (ATCC 25922)) | MIC [2] | Dmax [2] | MIC [3] | MIC A. baumannii [1] | Dmax A. baumannii, maximum % inhibition [1] | MIC E. coli (E. coli (ATCC 25922)) | Dmax E. coli, maximum % inhibition (E. coli (ATCC 25922)) | MIC P. aeruginosa [2] | Dmax P. aeruginosa, maximum % inhibition [2] | MIC C. neoformans [3] | MIC S. aureus (MRSA) [4] | Dmax S. aureus (MRSA), maximum % inhibition [4] | MIC K. pneumoniae [5] | Dmax K. pneumoniae, maximum % inhibition [5] | MIC C. albicans (C. albicans (ATCC 90028)) | Dmax C. albicans, maximum % inhibition (C. albicans (ATCC 90028)) | further results
1 | O=C(O)CC(O)(CC(=O)O)C(=O)O [Compound 1, Trisodium citrate, reference compound] | > 32 µg/mL | 18% | > 32 µg/mL | 6.14% | > 32 µg/mL | 10.3% | > 32 µg/mL |  |  |  |  |  |  |  |  |  |  |  |  |  | Dmax [3]: -8.24%; MIC [4]: > 32 µg/mL; Dmax [4]: 10.6%; MIC [5]: > 32 µg/mL; Dmax [5]: 14.2%; MIC (C. albicans (ATCC 90028)): > 32 µg/mL; Dmax (C. albicans (ATCC 90028)): 0.28%
2 | Oc1cc2ccccc2cc1O [Compound 2, 2,3-dihydroxynaphthalene, reference compound] | > 32 µg/mL | 31.3% | > 32 µg/mL | 6.86% | > 32 µg/mL | 14.6% | > 32 µg/mL |  |  |  |  |  |  |  |  |  |  |  |  |  | Dmax [3]: -9.97%; MIC [4]: > 32 µg/mL; Dmax [4]: 12.6%; MIC [5]: > 32 µg/mL; Dmax [5]: 26.8%; MIC (C. albicans (ATCC 90028)): > 32 µg/mL; Dmax (C. albicans (ATCC 90028)): 16.3%
3 | O=C(O)c1ccccc1O [Compound 6, salicylic acid, reference compound] | > 32 µg/mL | 17.9% | > 32 µg/mL | -0.01% | > 32 µg/mL | 9.76% | > 32 µg/mL |  |  |  |  |  |  |  |  |  |  |  |  |  | Dmax [3]: -10.7%; MIC [4]: > 32 µg/mL; Dmax [4]: 13.9%; MIC [5]: > 32 µg/mL; Dmax [5]: 17.1%; MIC (C. albicans (ATCC 90028)): > 32 µg/mL; Dmax (C. albicans (ATCC 90028)): 30.9%
4 | [K+].[K+].c1ccc2cc3c(cc2c1)[O][Ti-2]12([O]3)([O]c3cc4ccccc4cc3[O]1)[O]c1cc3ccccc3cc1[O]2 [Compound 8, K2[Ti(Naphthalene-2,3-diolate)3]] |  |  |  |  |  |  |  | >32 µg/mL | 24.76% | >32 µg/mL | 2.67% | >32 µg/mL | 13.43% | >32 µg/mL | >32 µg/mL | 52.5% | >32 µg/mL | 22.94% | >32 µg/mL | 57.57% | Dmax C. neoformans, maximum % inhibition [3]: −1.45%
5 | O=C(O)c1ccc(-n2nc3nc2-c2ccccc2[O][Ti]2([O]c4ccccc4-3)[O]c3ccccc3-c3nc(n(-c4ccc(C(=O)O)cc4)n3)-c3ccccc3[O]2)cc1 [Compound 10, titanium(IV) bis(deferasirox)] |  |  |  |  |  |  |  | >32 µg/mL | 16.28% | >32 µg/mL | 20.44% | >32 µg/mL | 7.57% | >32 µg/mL | 16 µg/mL | 98.2% | >32 µg/mL | 34.61% | >32 µg/mL | 5.74% | Dmax C. neoformans, maximum % inhibition [3]: −5.72%; MIC against MRSA in units of molarity ([4]; converted from 16 μg/mL): 20.2 µM; Dmax S. aureus (MRSA), maximum % inhibition ([4]; listed as Ti(Deferasirox)2): ~100%
6 | O=C([O-])C(=O)O.O=C([O-])C(=O)O.[K+].[K+].[O]=[Ti] [Compound 14, Potassium dioxalatoxotitanate(IV) dihydrate] |  |  |  |  |  |  |  | >32 µg/mL | 8.2% | >32 µg/mL | 11.0% | >32 µg/mL | 7.5% | >32 µg/mL | >32 µg/mL | 40.5% | >32 µg/mL | 17.2% | 32 µg/mL | 77.3% | C. albicans MIC value in units of molarity (C. albicans (ATCC 90028); converted from 32 μg/mL (Table S1)): 90.4 µM; Dmax C. albicans, maximum % inhibition (C. albicans (ATCC 90028); listed as K2[TiO(Oxalate)2]): greater than 75%
7 | [Cu(Deferasirox)(H2O)]2 [Compound 15] |  |  |  |  |  |  |  | >32 µg/mL | 7.8% | >32 µg/mL | −9.5% | >32 µg/mL | 19.2% | >32 µg/mL | >32 µg/mL | 26.9% | >32 µg/mL | 7.7% | >32 µg/mL | 34.0% | 

— article PMC8868518, “Exploring Titanium(IV) Complexes as Potential Antimicrobial Compounds” (Antibiotics, 2022)
